What all share (experiment): NCI tumour cell line growth inhibition, 48 h
Test [1] deals with M14.
The subject of test [2] is ACHN.
Test [3] concerns OVCAR-3.
Test [4] has as its system NCI-H460.
Test [5] has as its system COLO 205.
Test [6] deals with RPMI-8226.
In test [7] the test system is MOLT-4.
For test [8], the system named is SF-539.
The test system of test [9] is HCC 2998.
The test system of test [10] is HCT-15.
Test [11] has as its system SF-295.
The subject of test [12] is SW-620.
The subject of test [13] is HCT-116.
The test system of test [14] is K562.
The subject of test [15] is LOX IMVI.
Test [16] concerns NCI-H226.
Test [17] deals with OVCAR-5.

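Five concentrations, 48 hours, 96-well plates. GI50 is the concentration that inhibits growth by half.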 Activity calls are given as the source filed them. No stated cut-off is given here; in the data, active = GI50 up to about 1.1 µM and inactive = higher.

Regarding `COC1/C(=C\C(C)=O)c2ccccc2N1C(C)=O` (centres undefined), the GI50 in test [1], in [2], in test [3], in test [4], in test [5] and in test [6] was > 100 µM (inactive) throughout. In addition, the GI50 in [7] was > 100 µM (inactive); in [8] it was > 100 µM (inactive); in [9], > 100 µM (inactive); in test [10] it was greater than 100 µM; in [11], > 100 µM (inactive); in test [12], > 100 µM (inactive). Also, the GI50 in test [13] and in test [14] was > 100 µM (inactive) each time.

Regarding `O=C(CC1(O)C(=O)Nc2ccccc21)c1ccco1` (centres undefined), the GI50 in test [1], in [2], in test [3], in test [4], in test [5] and in test [6] was > 100 µM (inactive) in each case. Besides, the GI50 in test [7] is > 100 µM (inactive); in test [15], > 100 µM (inactive); in test [8] it was > 100 µM (inactive); in [10] it was greater than 100 µM; in test [11], > 100 µM (inactive); in test [16], > 100 µM (inactive). The GI50 in test [12], in test [13], in test [17] and in test [14] was > 100 µM (inactive) throughout.

Consider `CCOC(=O)C/C(=N\c1cc(C)on1)N(CC)CC.[O-][Cl+3]([O-])([O-])O`, for which the GI50 in [1], in [2], in test [3], in test [4], in [5] and in [6] was > 100 µM (inactive) each time. Also, the GI50 in [7] was > 100 µM (inactive); in test [8], > 100 µM (inactive); in test [10], greater than 100 µM; in test [16] it was > 100 µM (inactive); in [12], > 100 µM (inactive); in [13], > 100 µM (inactive). The GI50 in [17] and in test [14] was > 100 µM (inactive) throughout.

For the compound `CCn1c(O)c(C(=O)Nc2cccs2)c(=O)n(CC)c1=S`, the GI50 is 19.8 µM (inactive) in test [1]; 21.5 µM (inactive) in test [2]; 16.6 µM (inactive) in test [3]; 15.5 µM (inactive) in test [4]; 16.8 µM (inactive) in test [5]; 20.4 µM (inactive) in [6]. Besides, the GI50 is 20 µM (inactive) in [7]; 17 µM (inactive) in test [15]; 18.5 µM (inactive) in test [8]; 14 µM in test [10]; 11.7 µM (inactive) in [11]; 25.5 µM (inactive) in test [16]. Further, the GI50 in test [12] was 23.2 µM (inactive); in test [13], 19.2 µM (inactive); in [17] it was 23.7 µM (inactive); in test [14] it was 21.9 µM (inactive).

For the compound `COc1ccc2c(c1)[n+]([O-])c(C(N)=O)c(N)[n+]2[O-]`, the GI50 in test [1] was 75.5 µM (inactive); in test [2] it was > 100 µM (inactive); in [3], 32.7 µM (inactive); in [4] it was 54.6 µM (inactive); in test [5], 24.4 µM (inactive); in test [6], > 100 µM (inactive). Besides, the GI50 in test [8] was > 100 µM (inactive); in test [10], 61 µM; in [11] it was > 100 µM (inactive); in test [16], > 100 µM (inactive); in test [12], 57.9 µM (inactive); in test [13] it was > 100 µM (inactive). The GI50 in test [17] and in test [14] was > 100 µM (inactive) throughout.

The values above are taken from ChEMBL document CHEMBL1201862, “PubChem BioAssay data set” (2004).
